Data on 12 compounds can be found in patent EP0889886B1, “NOVEL PHENANTHRIDINES SUBSTITUTED IN THE 6 POSITION” (ALTANA Pharma AG, priority 1996, dated 1997).

Where a name gives a salt, the structure may show the parent alone.

The test system of this experiment is PDE IV. Kind of experiment: Inhibition of PDE IV activity (method of Bauer and Schwabe, adapted to microtiter plates). The class given is biochemical. The note with it: Hemmung der PDE IV-Aktivität.
Description: Hierbei erfolgt im ersten Schritt die PDE-Reaktion. In einem zweiten Schritt wird das entstandene 5'-Nukleotid durch eine 5'-Nukleotidase des Schlangengiftes von Crotalus Atrox zum ungeladenen Nukleosid gespalten. Im dritten Schritt wird das Nukleosid auf lonenaustauschsäulen vom verbliebenen geladenen Substrat getrennt. Die Säulen werden mit 2 ml 30 mM Ammoniumformiat (pH 6,0) direkt in Minivials eluiert, in die noch 2 ml Szintillatorflüssigkeit zur Zählung gegeben wird.
In the case of `CCOc1cc2c(cc1OC)C(c1ccc([N+](=O)[O-])cc1)=N[C@H]1CCCC[C@@H]21` (racemic) [Verbindung 21, (+/-)-cis-9-Ethoxy-8-methoxy-6-(4-nitrophenyl)-1,2,3,4,4a,10b-hexahydrophenanthridin], the “-log IC50” value was determined as 8.46.

For `CCOc1cc2c(cc1OCC)[C@H]1CCCC[C@H]1N=C2c1ccc(Cl)nc1` (racemic) [Verbindung 26, (+/-)-cis-8,9-Diethoxy-6-(2-chiorpyrid-5-yl)-1,2,3,4,4a,10b-hexahydrophenanthridin], the “-log IC50” value was 8.41.

Consider `CCOc1cc2c(cc1OCC)[C@H]1CCCC[C@H]1N=C2c1ccc(OC(F)(F)F)cc1` (racemic) [Verbindung 19, (+/-)-cis-8,9-Diethoxy-6-(4-trifluormethoxyphenyl)-1,2,3,4,4a,10b-hexahydrophenanthridin], for which the “-log IC50” value worked out at 7.97.

Take `CCOc1cc2c(cc1OCC)[C@H]1CCCC[C@H]1N=C2c1ccc(N(C(C)=O)S(=O)(=O)c2ccc(C)cc2)cc1` (racemic) [Verbindung 35, (+/-)-cis-8,9-Diethoxy-6-[(N-acetyl-4-p-toluolsulfonamido]phenyl]-1,2,3,4,4a,10b-hexahydrophenanthridin]: the “-log IC50” value amounted to 7.81.

Consider `CCOc1cc2c(cc1OC)C(c1ccc(N(C)S(=O)(=O)c3ccc(C)cc3)cc1)=N[C@@H]1CCCC[C@H]21` (racemic) [Verbindung 36, (+/-)-cis-9-Ethoxy-8-methoxy-6-[(N-methyl-4-p-toluolsulfonamido)phenyl]-1,2,3,4,4a,10bhexahydrophenanthridin], for which the “-log IC50” value is on record as 9.09.

Turning to `CCOc1cc2c(cc1OC)C(c1ccc(NS(=O)(=O)c3ccc(C)cc3)cc1)=N[C@@H]1CCCC[C@H]21` (racemic) [Verbindung 20, (+/-)-cis-9-Ethoxy-8-methoxy-6-(4-p-toluolsulfonamidophenyl)-1,2,3,4,4a,10b-hexahydrophenanthridin], the “-log IC50” value was found to be 9.05.

`CCOc1cc2c(cc1OC)C(c1ccc(N)cc1)=N[C@H]1CCCC[C@@H]21` (racemic) [Verbindung 29, (+/-)-cis-9-Ethoxy-8-methoxy-6-(4-aminophenyl)-1,2,3,4,4a,10b-hexahydrophenanthridin]: the “-log IC50” value is 7.69.

For `COc1cc2c(cc1OC)C1CC=CCC1N=C2c1ccc(NS(=O)(=O)c2ccc(C)cc2)cc1` (racemic) [Verbindung 10, (+/-)-trans-8,9-Dimethoxy-6-(4-p-toluolsulfonamidophenyl)-1,4,4a,10b-tetrahydrophenanthridin-hydrochlorid], the “-log IC50” value came out at 6.10.

For `COc1cc2c(cc1OC)C1CCCCC1N=C2c1ccc(NS(=O)(=O)c2ccc(C)cc2)cc1` (racemic) [Verbindung 9, (+/-)-trans-8,9-Dimethoxy-6-(4-p-toluolsulfonamidophenyl)-1,2,3,4,4a,10b-hexahydrophenanthridin-hydrochtorid], the “-log IC50” value is 6.17.

For the compound `CCOc1cc2c(cc1OCC)[C@H]1CCCC[C@H]1N=C2c1ccc(NS(=O)(=O)c2ccc(C)cc2)cc1` (racemic) [Verbindung 2, (+/-)-cis-8,9-Diethoxy-6-(4-p-toluolsulfonamidophenyl)-1,2,3,4,4a,10b-hexahydrophenanthridin], the “-log IC50” value came out at 8.39.

As for `COc1cc2c(cc1OC)[C@H]1CCCC[C@H]1N=C2c1c(Cl)cccc1Cl` (racemic) [Verbindung 6, (+/-)-cis-8,9-Dimethoxy-6-(2,6-dichlorphenyl)-1,2,3,4,4a,10b-hexahydrophenanthridin], the “-log IC50” value came out at 6.77.

Consider `CCOc1cc2c(cc1OC)C(c1ccc(NC(C)=O)cc1)=N[C@H]1CCCC[C@@H]21` (racemic) [Verbindung 32, (+/-)-cis-9-Ethoxy-8-methoxy-6-(4-acetamidophenyl)-1,2,3,4,4a,10b-hexahydrophenanthridin], for which the “-log IC50” value turned out to be 8.38.
